Measurements as given in ChEMBL document CHEMBL1143080, “Discovery of a novel series of nonsteroidal androgen receptor modulators: 5- or 6-oxachrysen-2-ones” (Bioorg Med Chem Lett, 2008).

Columns and labels:
Androgen receptor [1] = target: T1, Androgen receptor (Homo sapiens, UniProt P10275)
T1 sequence (P10275 whole entry): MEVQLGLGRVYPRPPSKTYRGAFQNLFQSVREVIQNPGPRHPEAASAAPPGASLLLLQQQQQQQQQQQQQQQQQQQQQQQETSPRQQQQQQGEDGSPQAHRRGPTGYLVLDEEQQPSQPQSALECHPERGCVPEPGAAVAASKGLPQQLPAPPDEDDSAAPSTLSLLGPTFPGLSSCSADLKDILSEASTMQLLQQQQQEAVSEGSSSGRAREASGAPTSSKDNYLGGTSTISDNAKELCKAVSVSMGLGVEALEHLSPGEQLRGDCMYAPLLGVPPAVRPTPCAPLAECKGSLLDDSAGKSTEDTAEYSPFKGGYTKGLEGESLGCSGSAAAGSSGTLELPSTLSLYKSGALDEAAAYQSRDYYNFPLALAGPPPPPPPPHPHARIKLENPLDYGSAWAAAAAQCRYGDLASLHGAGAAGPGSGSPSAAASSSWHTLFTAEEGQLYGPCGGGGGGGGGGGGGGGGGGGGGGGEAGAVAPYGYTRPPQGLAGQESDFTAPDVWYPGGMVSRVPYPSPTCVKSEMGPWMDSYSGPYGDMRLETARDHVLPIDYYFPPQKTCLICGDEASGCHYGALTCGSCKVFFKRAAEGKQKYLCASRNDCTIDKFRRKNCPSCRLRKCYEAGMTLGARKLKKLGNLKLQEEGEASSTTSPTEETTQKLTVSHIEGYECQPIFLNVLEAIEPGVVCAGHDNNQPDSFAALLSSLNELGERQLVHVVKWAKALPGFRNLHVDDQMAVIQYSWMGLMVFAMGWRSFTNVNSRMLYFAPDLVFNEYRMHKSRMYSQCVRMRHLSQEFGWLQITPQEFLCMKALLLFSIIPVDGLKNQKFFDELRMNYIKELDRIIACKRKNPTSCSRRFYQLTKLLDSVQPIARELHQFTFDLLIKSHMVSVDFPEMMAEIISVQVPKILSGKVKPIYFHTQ
Description: Agonist activity at human androgen receptor african green monkey CV1 cells by cotransfection assay

Androgen receptor [2] = target: T1, Androgen receptor; remark: listed apart in the source
Description: Binding affinity to human androgen receptor expressed in monkey COS7 cells by whole cell binding assay

Androgen receptor [3] = target: T1, Androgen receptor; remark: listed apart in the source
Description: Antagonist activity at human androgen receptor african green monkey CV1 cells by cotransfection assay

Androgen receptor [4] = target: T1, Androgen receptor; remark: listed apart in the source
Description: Activity at androgen receptor in human Saos2 cells assessed as IL6 repression

| Compound | EC50 (Androgen receptor [1]) [nM] | Ki (Androgen receptor [2]) [nM] | IC50 (Androgen receptor [3]) [nM] | IC50 (Androgen receptor [4]) [nM] |
| --- | --- | --- | --- | --- |
| COc1cccc2c1-c1ccc3[nH]c(=O)cc(C(F)(F)F)c3c1OC2 | > 10000 | 27 | 78 | 477 |
| COc1cccc2c1-c1ccc3[nH]c(=O)cc(C)c3c1CO2 | 50 | 59 | > 10000 | 12 |
| CCOc1ccc2oc(=O)c3c(ccc4[nH]c(=O)cc(C)c43)c2c1OC | 18 | 62 | > 10000 | 10 |
| COc1c(C(=O)OC(F)(F)F)ccc2oc(=O)c3c(ccc4[nH]c(=O)cc(C)c43)c12 | 43 | 10 | > 10000 | 0.2 |
| COc1cccc2oc(=O)c3c(ccc4[nH]c(=O)cc(C)c43)c12 | 11 | 28 | > 10000 | 21 |
| COc1c(OC(C)C)ccc2oc(=O)c3c(ccc4[nH]c(=O)cc(C)c43)c12 | 23 | 21 | 20 | 2.8 |
| COc1cccc2c1-c1ccc3[nH]c(=O)cc(C)c3c1C(OC)O2 (stereo not given) | 184 | 2350 | 19 | 112 |
| COc1c(O)ccc2oc(=O)c3c(ccc4[nH]c(=O)cc(C)c43)c12 | 21 | 4 | > 10000 | 0.2 |
| O=c1cc(C(F)(F)F)c2c3c(ccc2[nH]1)-c1c(O)cccc1OC3 | 16 | 1.3 | > 10000 | 1.1 |
| Cc1cc(=O)[nH]c2ccc3c4cc(F)ccc4oc(=O)c3c12 | 240 | 1000 | 27 | 101 |
| Cc1cc(=O)[nH]c2ccc3c4c(C(=O)OC(C)(C)C)cccc4oc(=O)c3c12 | 1.1 | 8.7 | > 10000 | 1.9 |
| C=CCC1Oc2cccc(OC)c2-c2ccc3[nH]c(=O)cc(C)c3c21 (stereo not given) | > 10000 | 1590 | 144 | – |
| COc1c(O)ccc2c1-c1ccc3[nH]c(=O)cc(C)c3c1CO2 | 306 | 5 | 19 | 1.2 |
| COc1cccc2c1-c1ccc3[nH]c(=O)cc(C)c3c1C(O)O2 (stereo not given) | 208 | 1300 | > 10000 | 50 |
| COc1cccc2c(=O)oc3c(ccc4[nH]c(=O)cc(C(F)(F)F)c43)c12 | 90 | 50 | > 10000 | 89 |
| COc1cccc2c1-c1ccc3[nH]c(=O)cc(C)c3c1C(C)O2 (stereo not given) | > 10000 | 250 | 62 | – |
| COc1cccc2c1-c1ccc3[nH]c(=O)cc(C(F)(F)F)c3c1CO2 | 20 | 11 | > 10000 | 14 |
| COc1ccc2oc(=O)c3c(ccc4[nH]c(=O)cc(C)c43)c2c1 | > 10000 | 610 | 48 | 0.8 |
